Measurements as given in patent US20230138395A1, “PHARMACEUTICAL COMPOSITIONS OF A THERAPEUTIC POLYENE MACROLIDE AND METHODS OF THEIR USE” (priority 2020, published 2023).
Values after ≈ are worked out from the molar mass of the structure shown. Values joined by “and” are separate entries in the source; they are usually repeats but may differ in a detail not shown here. Equal values may be shown once. Marks after values point to notes of the source that are not given here.

Assays:
[1] = test system: individual Aspergillus spp. (Table 14, species not named); assay: MFC determination, Table 14; format: cell-based; settings: Aspergillus sp. of Table 14
[2] = test system: all Aspergillus strains tested; assay: MIC testing (CLSI M38-A2), summary; format: cell-based; settings: caspofungin read as MEC
[3] = test system: individual Aspergillus spp. (Table 12, species not named); assay: MIC testing (CLSI M38-A2), Table 12; format: cell-based; settings: Aspergillus sp. of Table 12, caspofungin read as MEC
Penicillium strains [4] = assay: MFC determination; format: cell-based, Penicillium spp.
[5] = test system: Aspergillus fumigatus AF91; assay: Disseminated Aspergillosis in immunocompromised murine model (CD-1 mice): tissue fungal burden; settings: 7 days
C. krusei strains [6] = assay: MIC testing (CLSI M27-A3); format: cell-based
Candida albicans [7] = assay: MFC determination; format: cell-based
C. krusei strains [8] = assay: MFC determination; format: cell-based
Candida albicans [9] = assay: MIC testing (CLSI M27-A3); format: cell-based; design: MIC: unit not given beside the values; settings: for MIC Range: in µg/mL
[10] = test system: individual Aspergillus spp. (Table 13, species not given); assay: MIC testing (CLSI M38-A2), Table 13; format: cell-based; settings: Aspergillus sp. of Table 13, caspofungin read as MEC
C. albicans SC5314 [11] = assay: In vitro activity (MIC) against the infecting strain, Example 18; format: cell-based, Candida albicans; settings: Candida albicans, read-out: MIC
[12] = test system: individual Aspergillus spp. (Table 15, species not named); assay: MFC determination, Table 15; format: cell-based; settings: Aspergillus sp. of Table 15
C. parapsilosis = assay: MFC determination; format: cell-based
Fusarium strains [13] = assay: MFC determination, Table 17; format: cell-based, Fusarium spp.; settings: Fusarium strains (Table 17)
C. glabrata strains = assay: MIC testing (CLSI M27-A3); format: cell-based; design: MIC: unit not given beside the values
Penicillium strains [14] = assay: MIC testing (CLSI M38-A2); format: cell-based, Penicillium spp.
[15] = test system: individual Aspergillus spp. (Table 12, species not named); assay: MFC determination, Table 12; format: cell-based; settings: Aspergillus sp. of Table 12
[16] = test system: individual Aspergillus spp. (Table 13, species not given); assay: MFC determination, Table 13; format: cell-based; settings: Aspergillus sp. of Table 13
Cr. neoformans strains = assay: MIC testing (CLSI M27-A3, YNB, 72 h); format: cell-based, Cryptococcus neoformans
Candida albicans SC5314 = assay: Disseminated candidiasis in immunocompromised murine model (BALB/c mice): tissue fungal burden; format: in vivo; settings: 7 days
[17] = test system: individual Aspergillus spp. (Table 15, species not named); assay: MIC testing (CLSI M38-A2), Table 15; format: cell-based; settings: Aspergillus sp. of Table 15, caspofungin read as MEC
all Candida strains = assay: MIC testing (CLSI M27-A3), summary; format: cell-based
[18] = test system: Fusarium strains (Table 18); assay: MFC determination, Table 18; format: cell-based, Fusarium spp.
C. tropicalis = assay: MFC determination; format: cell-based
Fusarium strains [19] = assay: MIC testing (CLSI M38-A2), Table 17; format: cell-based, Fusarium spp.; settings: Fusarium strains (Table 17)
C. albicans SC5314 [20] = assay: In vitro activity (MFC) against the infecting strain, Example 18; format: cell-based, Candida albicans; settings: Candida albicans, read-out: MFC
[21] = test system: all Aspergillus strains tested; assay: MFC determination, summary; format: cell-based
[22] = Experiment II, 0.5 mg/kg i.v. daily
[23] = Experiment II, 1.0 mg/kg i.v. daily
[24] = individual C. krusei strain with elevated MICs to non-polyene comparators (Table 22)
[25] = individual C. albicans strain with elevated MICs to non-polyene comparators (Table 22)

C[C@@H]1[C@H](O)[C@@H](C)/C=C/C=C/C=C/C=C/C=C/C=C/C=C/[C@H](O[C@@H]2O[C@H](C)[C@@H](O)[C@H](N)[C@@H]2O)C[C@@H]2O[C@](O)(C[C@@H](O)[C@H](O)CC[C@@H](O)C[C@@H](O)C[C@@H](O)CC(=O)O[C@H]1C)C[C@H](O)[C@H]2C [Compound 1A]
MFC50 ([1]; kills 50% of strains): 2 µg/mL (≈ 2.24 µM)
MFC90 ([1]; kills 90% of strains): 4 µg/mL (≈ 4.47 µM)
MIC Range ([2]; in µg/mL): 0.5-4
MIC50 ([2]; inhibits 50% of strains): 2 µg/mL (≈ 2.24 µM)
MIC90 ([2]; inhibits 90% of strains): 2 µg/mL (≈ 2.24 µM)
MIC Range ([3]; in µg/mL): 1-4
MIC50 ([3]; inhibits 50% of strains): 2 µg/mL (≈ 2.24 µM)
MIC90 ([3]; inhibits 90% of strains): 2 µg/mL (≈ 2.24 µM)
MFC50 (Penicillium strains [4]; kills 50% of strains): 2 µg/mL (≈ 2.24 µM)
MFC90 (Penicillium strains [4]; kills 90% of strains): 4 µg/mL (≈ 4.47 µM)
Kidney tissue fungal burden, Mean log CFUs ± the standard deviation ([5]; Experiment I, 0.5 mg/kg i.v.): 3.16 ± 0.40 log CFUs
Lung tissue fungal burden, Mean log CFUs ± the standard deviation ([5]; Experiment I, 0.5 mg/kg i.v.): 3.46 ± 0.49 log CFUs
Kidney tissue fungal burden, Mean log CFUs ± the standard deviation ([5]; Experiment I, 1.0 mg/kg i.v.): 0.51 ± 1.02 log CFUs
Lung tissue fungal burden, Mean log CFUs ± the standard deviation ([5]; Experiment I, 1.0 mg/kg i.v.): 0.55 ± 1.10 log CFUs
Kidney tissue fungal burden, Mean log CFUs ± the standard deviation [5, 22]: 2.93 ± 0.73 log CFUs
Lung tissue fungal burden, Mean log CFUs ± the standard deviation [5, 22]: 2.75 ± 0.93 log CFUs
Kidney tissue fungal burden, Mean log CFUs ± the standard deviation [5, 23]: 1.16 ± 1.10 log CFUs
Lung tissue fungal burden, Mean log CFUs ± the standard deviation [5, 23]: 1.17 ± 1.15 log CFUs
MIC Range (C. krusei strains [6]; C. krusei strains, in µg/mL): 0.5-2
MIC50 (C. krusei strains [6]; C. krusei, inhibits 50% of strains): 1 µg/mL (≈ 1.12 µM)
MIC90 (C. krusei strains [6]; C. krusei, inhibits 90% of strains): 2 µg/mL (≈ 2.24 µM)
MIC (C. krusei strains [6]; [24]): 0.5 µg/mL (≈ 0.559 µM)
MFC Range (Candida albicans [7]; Fluconazole-susceptible C. albicans n = 13, in µg/mL): 0.125-1
MFC50 (Candida albicans [7]; Fluconazole-susceptible C. albicans n = 13, kills 50% of strains): 0.5 µg/mL (≈ 0.559 µM)
MFC90 (Candida albicans [7]; Fluconazole-susceptible C. albicans n = 13, kills 90% of strains): 1 µg/mL (≈ 1.12 µM)
MFC (Candida albicans [7]; [25]): 1 (5×) and >4 and 2
MFC Range (C. krusei strains [8]; C. krusei strains, in µg/mL): 0.5-2
MFC50 (C. krusei strains [8]; C. krusei, kills 50% of strains): 1 µg/mL (≈ 1.12 µM)
MFC90 (C. krusei strains [8]; C. krusei, kills 90% of strains): 2 µg/mL (≈ 2.24 µM)
MFC (C. krusei strains [8]; [24]): 2 µg/mL (≈ 2.24 µM)
MIC Range (Candida albicans [9]; Fluconazole-resistant C. albicans n = 7): 1-2
MIC Range (Candida albicans [9]; Fluconazole-susceptible C. albicans n = 13): 0.125-1
MIC50 (Candida albicans [9]; Fluconazole-susceptible C. albicans n = 13, inhibits 50% of strains): 0.5 µg/mL (≈ 0.559 µM)
MIC90 (Candida albicans [9]; Fluconazole-susceptible C. albicans n = 13, inhibits 90% of strains): 1 µg/mL (≈ 1.12 µM)
MIC (Candida albicans [9]; [25]): 1 (6×) and 2
MIC Range ([10]; in µg/mL): 1-2
MIC50 ([10]; inhibits 50% of strains): 1 µg/mL (≈ 1.12 µM)
MIC90 ([10]; inhibits 90% of strains): 2 µg/mL (≈ 2.24 µM)
MIC (C. albicans SC5314 [11]): 0.5 µg/mL (≈ 0.559 µM)
MFC50 ([12]; kills 50% of strains): > 4 µg/mL
MFC90 ([12]; kills 90% of strains): > 4 µg/mL
MFC Range (C. parapsilosis; C. parapsilosis strains, in µg/mL): 0.25-2
MFC50 (C. parapsilosis; C. parapsilosis, kills 50% of strains): 0.5 µg/mL (≈ 0.559 µM)
MFC90 (C. parapsilosis; C. parapsilosis, kills 90% of strains): 2 µg/mL (≈ 2.24 µM)
MFC (C. parapsilosis; individual C. parapsilosis strain with elevated MICs to non-polyene comparators (Table 22)): 0.5 (2×) and 1
MFC Range (Fusarium strains [13]; in µg/mL): 1-4
MFC50 (Fusarium strains [13]; kills 50% of strains): 2 µg/mL (≈ 2.24 µM)
MFC90 (Fusarium strains [13]; kills 90% of strains): > 4 µg/mL
MIC Range (C. glabrata strains; C. glabrata strains, in µg/mL): 0.25-2
MIC50 (C. glabrata strains; C. glabrata, inhibits 50% of strains): 1 µg/mL (≈ 1.12 µM)
MIC90 (C. glabrata strains; C. glabrata, inhibits 90% of strains): 2 µg/mL (≈ 2.24 µM)
MIC (C. glabrata strains; individual C. glabrata strain with elevated MICs to non-polyene comparators (Table 22)): 1 (5×) and 2
MIC Range (Penicillium strains [14]; Penicillium strains, in µg/mL): 0.5-2
MIC50 (Penicillium strains [14]; Penicillium, inhibits 50% of strains): 2 µg/mL (≈ 2.24 µM)
MIC90 (Penicillium strains [14]; Penicillium, inhibits 90% of strains): 2 µg/mL (≈ 2.24 µM)
MFC50 ([15]; kills 50% of strains): 4 µg/mL (≈ 4.47 µM)
MFC90 ([15]; kills 90% of strains): > 4 µg/mL
MFC50 ([16]; kills 50% of strains): 2 µg/mL (≈ 2.24 µM)
MFC90 ([16]; kills 90% of strains): > 4 µg/mL
MIC Range (Cr. neoformans strains; Cr. neoformans strains, 72 h, in µg/mL): 0.5-2
MIC50 (Cr. neoformans strains; Cr. neoformans, inhibits 50% of strains): 1 µg/mL (≈ 1.12 µM)
MIC90 (Cr. neoformans strains; Cr. neoformans, inhibits 90% of strains): 1 µg/mL (≈ 1.12 µM)
Brain tissue fungal burden, Mean log CFUs ± the standard deviation (Candida albicans SC5314; Experiment I, 0.35 mg/kg i.v.): 2.92 ± 1.21 log CFUs
Kidney tissue fungal burden, Mean log CFUs ± the standard deviation (Candida albicans SC5314; Experiment I, 0.35 mg/kg i.v.): 3.16 ± 1.41 log CFUs
Brain tissue fungal burden, Mean log CFUs ± the standard deviation (Candida albicans SC5314; Experiment I, 0.7 mg/kg i.v.): 3.59 ± 1.20 log CFUs
Kidney tissue fungal burden, Mean log CFUs ± the standard deviation (Candida albicans SC5314; Experiment I, 0.7 mg/kg i.v.): 2.66 ± 2.11 log CFUs
Brain tissue fungal burden, Mean log CFUs ± the standard deviation (Candida albicans SC5314; Experiment II, 0.35 mg/kg i.v.): 3.55 ± 1.26 log CFUs
Kidney tissue fungal burden, Mean log CFUs ± the standard deviation (Candida albicans SC5314; Experiment II, 0.35 mg/kg i.v.): 3.53 ± 0.63 log CFUs
Brain tissue fungal burden, Mean log CFUs ± the standard deviation (Candida albicans SC5314; Experiment II, 0.7 mg/kg i.v.): 2.97 ± 2.04 log CFUs
Kidney tissue fungal burden, Mean log CFUs ± the standard deviation (Candida albicans SC5314; Experiment II, 0.7 mg/kg i.v.): 2.99 ± 1.05^a,b log CFUs
MIC Range ([17]; in µg/mL): 0.5-4
MIC50 ([17]; inhibits 50% of strains): 2 µg/mL (≈ 2.24 µM)
MIC90 ([17]; inhibits 90% of strains): 4 µg/mL (≈ 4.47 µM)
MIC Range (all Candida strains; in µg/mL): 0.125-8
MIC50 (all Candida strains; inhibits 50% of strains): 1 µg/mL (≈ 1.12 µM)
MIC90 (all Candida strains; inhibits 90% of strains): 2 µg/mL (≈ 2.24 µM)
MFC50 ([18]; kills 50% of strains): 2 µg/mL (≈ 2.24 µM)
MFC90 ([18]; kills 90% of strains): > 4 µg/mL
MFC Range (C. tropicalis; C. tropicalis strains, in µg/mL): 0.5-16
MFC50 (C. tropicalis; C. tropicalis, kills 50% of strains): 1 µg/mL (≈ 1.12 µM)
MFC90 (C. tropicalis; C. tropicalis, kills 90% of strains): 8 µg/mL (≈ 8.95 µM)
MIC Range (Fusarium strains [19]; in µg/mL): 1-4
MIC50 (Fusarium strains [19]; inhibits 50% of strains): 2 µg/mL (≈ 2.24 µM)
MIC90 (Fusarium strains [19]; inhibits 90% of strains): 4 µg/mL (≈ 4.47 µM)
MFC (C. albicans SC5314 [20]): 0.5 µg/mL (≈ 0.559 µM)
MFC50 ([21]; kills 50% of strains): 4 µg/mL (≈ 4.47 µM)
MFC90 ([21]; kills 90% of strains): > 4 µg/mL
